Data from patent US12454687B2, “Functional genomics using CRISPR-Cas systems, compositions, methods, knock out libraries and applications thereof” (The Broad Institute, Inc., priority 2012, dated 2025).

Experiments:
human EMX1 locus [1] = test: double nicking SURVEYOR assay, Cas9 nickase with pairs of guide RNAs, HEK293FT cells; assay type: cell-based; conditions: sgRNA pairs generating 5′ and 3′ overhangs, offset range from −278 to +58 bp
Experimental: Applicants transfected cells using Lipofectamine 2000, and transfected cells were harvested 48 or 72 hours after transfections. Double nicking-induced NHEJ were detected using the SURVEYOR nuclease assay as described previously herein (FIGS. 51, 52 and 53).

human EMX1 locus [2] = test: Surveyor assay for genome modification, HEK 293 FT cells; assay type: cell-based; conditions: co-expression with EMX1-targeting chimeric crRNA, n=3
Experimental: Cells were transfected using Lipofectamine 2000 (Life Technologies) following the manufacturer's recommended protocol. For each well of a 24-well plate a total of 800 ng of plasmids were used.
Genomic DNA was extracted using the QuickExtract DNA extraction kit (Epicentre) following the manufacturer's protocol. […] Extracted genomic DNA was immediately processed or stored at −20° C.
The genomic region surrounding a CRISPR target site for each gene was PCR amplified, and products were purified using QiaQuick Spin Column (Qiagen) following manufacturer's protocol. A total of 400 ng of the purified PCR products were mixed with 2 μl 10× Taq polymerase PCR buffer (Enzymatics) and ultrapure water to a final volume of 20 μl, and subjected to a re-annealing process to enable heteroduplex formation: 95° C. for 10 min, 95° C. to 85° C. ramping at −2° C./s, 85° C. to 25° C. at −0.25° C./s, and 25° C. hold for 1 minute. After re-annealing, products were treated with Surveyor nuclease and Surveyor enhancer S (Transgenomics) following the manufacturer's recommended protocol, and analyzed on 4-20% Novex TBE poly-acrylamide gels (Life Technologies). Gels were stained with SYBR Gold DNA stain (Life Technologies) for 30 minutes and imaged with a Gel Doc gel imaging system (Bio-rad). Quantification was based on relative band intensities, as a measure of the fraction of cleaved DNA.

human EMX1 locus [3] = test: sequencing of amplicons containing the target locus; assay type: cell-based; conditions: sequencing of 327 amplicons
human EMX1 locus [4] = test: restriction fragment length polymorphism assay for homologous recombination; assay type: cell-based; conditions: HEK 293 FT, HindIII digest
Source text: The target genomic region was PCR amplified using primers outside the homology arms of the homologous recombination (HR) template. PCR products were separated on a 1% agarose gel and extracted with MinElute GelExtraction Kit (Qiagen). Purified products were digested with HindIII (Fermentas) and analyzed on a 6% Novex TBE poly-acrylamide gel (Life Technologies).

EMX1 locus = test: HDR with ssODNs and targeting vector in HUES9 cells; assay type: cell-based, human
Source text: (a) Either a targeting plasmid or an ssODN (sense or antisense) with homology arms can be used to edit the sequence at a target genomic locus cleaved by Cas9 (red triangle). To assay the efficiency of HDR, we introduced a HindIII site into the target locus, which was PCR-amplified with primers that anneal outside of the region of homology. […] (b) ssODNs, oriented in either the sense or the antisense (s or a) direction relative to the locus of interest, can be used in combination with Cas9 to achieve efficient HDR-mediated editing at the target locus. A minimal homology region of 40 bp, and preferably 90 bp, is recommended on either side of the modification. […] Each ssODN contains homology arms of 90 bp flanking a 12-bp insertion of two restriction sites.
114| In the HDR example, a HindIII restriction site is inserted into the EMX1 gene. These are detected by a restriction digest of the PCR amplicon:
iv. The cleavage products are imaged and quantified as described above in the SURVEYOR assay section. HDR efficiency is estimated by the formula: (b+c)/(a+b+c), where a is the integrated intensity for the undigested HDR PCR product, and b and c are the integrated intensities for the HindIII-cut fragments.
CRISPR-Cas may be easily multiplexed to facilitate simultaneous modification of several genes and mediate chromosomal microdeletions at high efficiencies. […]

[5] = system: Exon 51 of the dystrophin gene; conditions: across 48 weeks, cited from earlier work

Substance: H840A: SpCas9 with mutation H840A
- indel formation with sgRNA pairs (human EMX1 locus [1]): unable to observe indel formation

Substance: SpCas9n: SpCas9 with aspartate-to-alanine substitution (D10A) in the RuvC I catalytic domain, a nickase
- indels at the EMX1 protospacer target (human EMX1 locus [2]): does not generate indels
- indels detected by sequencing (human EMX1 locus [3]): did not detect any indels
- integration of the HR template into the EMX1 locus (human EMX1 locus [4]): catalyzed integration of the HR template
- HDR detection (EMX1 locus): not been able to detect HDR

Substance: eteplirsen
- functional benefit [5]: significant functional benefit
- dystrophin positive fibers ([5]; average, compared to baseline): 47%
